# Measurements taken from patent publication US12514254B2, “Rosa canina rosehip” (priority 2020, dated 2026).
# What was measured:
# E. coli = assay: Drug-resistance profile towards antibiotics; type: cell-based, Escherichia coli; note: key: R = resistant; S = sensitive
# Protocol: (§1) The resistance profiles of the microbial strains mentioned above, evaluated by the inventors and available in the literature, are reported in Tables 4 and 5 [24-26].
# (§2) The activity on bacterial or fungal (yeast) strains isolated from biological samples from hospitalized or collection patients was evaluated, the nosocomial derivation of the majority of these strains characterized their resistance to different antimicrobials as reported in Tables 4 and 5.
# (§3) In particular: • Klebsiella pneumoniae: represents the main opportunistic microorganism responsible for nosocomial infections and several authors report persistent biofilms of K. pneumoniae in water systems. A clinical isolate (NC5) was used to assess the actual resistance to the preparations. • Escherichia coli: the ATCC 7075 (American Type Culture Collection) strain was used. • Staphylococcus aureus Methicillin-resistantATCC BAA-811 is responsible for several suppurative infections in humans, it is often isolated in patients with prostheses. • Pseudomonas aeruginosa: in the present work a mucoid strain was tested (ATCC 15442) from the American Type Culture Collection (ATCC), known in the literature for its remarkable refractoriness to disinfectants, in particular if the strain is present in sessile form or in a state of mature biofilm. https://www.lgcstandards-atcc.org/products/all/15442.aspx?geo_country=it • Three azole-resistant clinical isolates belonging to the Candida genus were used, in particular: C. albicans clinical isolate BF1, C. krusei clinical isolate BF2 andclinical C. glabrata, isolate BF3 [1,26]. • In all the tests performed, each microbial species was cultivated according to standard growth conditions, in particular: • 1. Mueller-Hinton Agar medium (Microbiol, Uta, Cagliari), was used for the growth of E. coli, S. aureus, P. aeruginosa and K. pneumoniae. The development conditions were: in air at 37° C. • 2. Schaedler Agar and Broth (Microbiol) medium was used for the growth of S. pyogenes and S. mutans. Development conditions: in air and 5% CO2 at 37° C. • 3. Sabouraud Dextrose Agar and Broth (Microbiol), used for C. albicans, C. krusei and C. glabrata. Development conditions: in air at 37° C.
# P. aeruginosa = assay: Drug-resistance profile towards antibiotics; type: cell-based, Pseudomonas aeruginosa; note: key: R = resistant; S = sensitive
# Protocol: as §1, §2, §3
# K. pneumoniae = assay: Drug-resistance profile towards antibiotics; type: cell-based, Klebsiella pneumoniae; note: key: R = resistant; S = sensitive
# Protocol: as §1, §2, §3
# S. aureus MRSA = assay: Drug-resistance profile towards antibiotics; type: cell-based, Staphylococcus aureus; note: key: R = resistant; S = sensitive
# Protocol: as §1, §2, §3
# S. pyogenes = assay: Drug-resistance profile towards antibiotics; type: cell-based, Streptococcus pyogenes; note: key: R = resistant; S = sensitive
# Protocol: as §1, §2, §3
# C. albicans = assay: Drug-resistance profile of fungal strains; type: cell-based, Candida albicans
# Protocol: as §1, §2
# as §3, with “Sabouraud Dextrose Agar and Broth (Microbiol), used for C. albicans, C. krusei and C. glabrata. Development conditions: in air at 37° C.” left out
# C. krusei = assay: Drug-resistance profile of fungal strains; type: cell-based, Candida krusei
# Protocol: as §1, §2
# as §3, with “Sabouraud Dextrose Agar and Broth (Microbiol), used for C. albicans, C. krusei and C. glabrata. Development conditions: in air at 37° C.” left out
# C. glabrata = assay: Drug-resistance profile of fungal strains; type: cell-based, Candida glabrata
# Protocol: as §1, §2
# as §3, with “Sabouraud Dextrose Agar and Broth (Microbiol), used for C. albicans, C. krusei and C. glabrata. Development conditions: in air at 37° C.” left out
Molecule,Drug-resistance profile (P. aeruginosa),Drug-resistance profile (K. pneumoniae),Drug-resistance profile (S. aureus MRSA),Drug-resistance profile (S. pyogenes),further results
NCC[C@H](O)C(=O)N[C@@H]1C[C@H](N)[C@@H](O[C@H]2O[C@H](CN)[C@@H](O)[C@H](O)[C@H]2O)[C@H](O)[C@H]1O[C@H]1O[C@H](CO)[C@@H](O)[C@H](N)[C@H]1O [Amikacin],S,R,,,Drug-resistance profile (E. coli): R
CC1(C)S[C@@H]2[C@H](NC(=O)Cc3ccccc3)C(=O)N2[C@H]1C(=O)O [Benzylpenicillin],,,R,,
CO/N=C(\C(=O)N[C@@H]1C(=O)N2C(C(=O)[O-])=C(C[N+]3(C)CCCC3)CS[C@H]12)c1csc(N)n1 [Cefepime],S,S,,,
CO/N=C(\C(=O)N[C@@H]1C(=O)N2C(C(=O)O)=C(COC(C)=O)CS[C@H]12)c1csc(N)n1 [Cefotaxime],,,,,Drug-resistance profile (E. coli): S
CCO/N=C(\C(=O)N[C@@H]1C(=O)N2C(C(=O)[O-])=C(Sc3nc(-c4cc[n+](C)cc4)cs3)CS[C@H]12)c1nsc(N)n1 [Ceftaroline],,,S,,
CC(C)(O/N=C(\C(=O)N[C@@H]1C(=O)N2C(C(=O)[O-])=C(C[n+]3ccccc3)CS[C@H]12)c1csc(N)n1)C(=O)O [Ceftazidime],S,S,,,Drug-resistance profile (E. coli): S
O=C(O)c1cn(C2CC2)c2cc(N3CCNCC3)c(F)cc2c1=O [Ciprofloxacin],R,S,,,
CCC[C@@H]1C[C@@H](C(=O)N[C@@H]([C@H]2O[C@H](SC)[C@H](O)[C@@H](O)[C@H]2O)[C@H](C)Cl)N(C)C1 [Clindamycin],,,S,S,
CCCCCCCCCC(=O)N[C@@H](Cc1c[nH]c2ccccc12)C(=O)N[C@H](CC(N)=O)C(=O)N[C@@H](CC(=O)O)C(=O)N[C@@H]1C(=O)NCC(=O)N[C@@H](CCCN)C(=O)N[C@@H](CC(=O)O)C(=O)N[C@H](C)C(=O)N[C@@H](CC(=O)O)C(=O)NCC(=O)N[C@H](CO)C(=O)N[C@@H]([C@H](C)CC(=O)O)C(=O)N[C@@H](CC(=O)c2ccccc2N)C(=O)O[C@@H]1C [Daptomycin],,,S,,
C[C@@H](O)[C@H]1C(=O)N2C(C(=O)O)=C(S[C@@H]3CN[C@H](C(=O)Nc4cccc(C(=O)O)c4)C3)[C@H](C)[C@H]12 [Ertapenem],R,R,,,Drug-resistance profile (E. coli): S
CC[C@H]1OC(=O)[C@H](C)[C@@H](O[C@H]2C[C@@](C)(OC)[C@@H](O)[C@H](C)O2)[C@H](C)[C@@H](O[C@@H]2O[C@H](C)C[C@H](N(C)C)[C@H]2O)[C@](C)(O)C[C@@H](C)C(=O)[C@H](C)[C@@H](O)[C@]1(C)O [Erythromycin],,,R,S,
OC(Cn1cncn1)(Cn1cncn1)c1ccc(F)cc1F [Fluconazole],,,,,Drug-resistance profile (C. albicans; FLC reference values): R (FLC: R > 64 μg/mL); Drug-resistance profile (C. krusei; FLC reference values): R (FLC: R > 64 μg/mL); Drug-resistance profile (C. glabrata; FLC reference values): R (FLC: R > 64 μg/mL)
C[C@@H]1O[C@@H]1P(=O)(O)O [Fosfomycin],R,S,,,
CC(=O)O[C@H]1C[C@@]2(C)[C@@H](C[C@@H](O)[C@H]3[C@@]4(C)CC[C@@H](O)[C@@H](C)[C@@H]4CC[C@@]32C)/C1=C(\CCC=C(C)C)C(=O)O [Fusidic acid],,,S,S,
C[C@@H](O)[C@H]1C(=O)N2C(C(=O)O)=C(SCCN=CN)C[C@H]12 [Imipenem],S,S,,,
CC(=O)N1CCN(c2ccc(OCC3COC(Cn4ccnc4)(c4ccc(Cl)cc4Cl)O3)cc2)CC1 (stereo not shown) [Ketoconazole],,,,,Drug-resistance profile (C. albicans; KTC reference values): R (KTC: R > 1 μg/mL); Drug-resistance profile (C. krusei; KTC reference values): R (KTC: R > 1 μg/mL); Drug-resistance profile (C. glabrata; KTC reference values): R (KTC: R > 1 μg/mL)

Molecule,Drug-resistance profile (P. aeruginosa),Drug-resistance profile (K. pneumoniae),Drug-resistance profile (S. aureus MRSA),Drug-resistance profile (S. pyogenes),further results
C[C@H]1COc2c(N3CCN(C)CC3)c(F)cc3c(=O)c(C(=O)O)cn1c23 [Levofloxacin],,,S,S,
CC(=O)NC[C@H]1CN(c2ccc(N3CCOCC3)c(F)c2)C(=O)O1 [Linezolid],,,S,S,
C[C@@H](O)[C@H]1C(=O)N2C(C(=O)O)=C(S[C@@H]3CN[C@H](C(=O)N(C)C)C3)[C@H](C)[C@H]12 [Meropenem],S,S,,,Drug-resistance profile (E. coli): S
Cc1onc(-c2ccccc2)c1C(=O)N[C@@H]1C(=O)N2[C@@H]1SC(C)(C)[C@@H]2C(=O)O [Oxacillin],,,S,R,
CO[C@H]1/C=C/O[C@@]2(C)Oc3c(C)c(O)c4c(O)c(c(/C=N/N5CCN(C)CC5)c(O)c4c3C2=O)NC(=O)/C(C)=C\C=C\[C@H](C)[C@H](O)[C@@H](C)[C@@H](O)[C@@H](C)[C@H](OC(C)=O)[C@@H]1C [Rifampicin],,,S,S,
CN(C)[C@@H]1C(O)=C(C(N)=O)C(=O)[C@@]2(O)C(O)=C3C(=O)c4c(O)cccc4[C@@](C)(O)[C@H]3C[C@@H]12 [Tetracycline],,,S,,
CN(C)c1cc(NC(=O)CNC(C)(C)C)c(O)c2c1C[C@H]1C[C@H]3[C@H](N(C)C)C(O)=C(C(N)=O)C(=O)[C@@]3(O)C(O)=C1C2=O [Tigecycline],,,S,S,
CN[C@H](CC(C)C)C(=O)N[C@H]1C(=O)N[C@@H](CC(N)=O)C(=O)N[C@H]2C(=O)N[C@H]3C(=O)N[C@H](C(=O)N[C@H](C(=O)O)c4cc(O)cc(O)c4-c4cc3ccc4O)[C@H](O)c3ccc(c(Cl)c3)Oc3cc2cc(c3O[C@@H]2O[C@H](CO)[C@@H](O)[C@H](O)[C@H]2O[C@H]2C[C@](C)(N)[C@H](O)[C@H](C)O2)Oc2ccc(cc2Cl)[C@H]1O [Vancomycin],,,S,S,
C[C@@H](c1ncncc1F)[C@](O)(Cn1cncn1)c1ccc(F)cc1F [Voriconazole],,,,,Drug-resistance profile (C. albicans; VRC reference values): R (VRC: R > 4 μg/mL); Drug-resistance profile (C. krusei; VRC reference values): R (VRC: R > 4 μg/mL); Drug-resistance profile (C. glabrata; VRC reference values): R (VRC: R > 4 μg/mL)
Amoxicillin/ac. Clavulanic,,,,,Drug-resistance profile (E. coli): R
Colistin,S,S,,,
Gentamicin,S,S,S,S,
Piperacillin-tazobactam,S,S,,,Drug-resistance profile (E. coli): S
Teicoplanin,,,S,,
Trimethoprim-sulfamethoxazole,R,R,S,R,
